Reference: ChEMBL document CHEMBL1201862, “PubChem BioAssay data set” (2004)
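1) Cells in 96-well plates. 2) Compound, 48 h, 5 concentrations. 3) Linear interpolation between surrounding doses. 4) Unreached endpoint = highest concentration. GI50: concentration for 50% inhibition of growth.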 Active and inactive are the calls of the source. Rule as the data show it: active = GI50 up to about 1.1 µM and inactive = higher.

Columns and labels:
Assay in all cases: inhibition of tumour cell growth, NCI panel, 48 h
M14 = tested on: M14
SN12C = tested on: SN12C
NCI-H23 = tested on: NCI-H23
SF-539 = tested on: SF-539
K562 = tested on: K562
LOX IMVI = tested on: LOX IMVI
TK-10 = tested on: TK-10
SNB-19 = tested on: SNB-19
Malme-3M = tested on: Malme-3M
SK-MEL-2 = tested on: SK-MEL-2
ACHN = tested on: ACHN
UO-31 = tested on: UO-31
NCI-H460 = tested on: NCI-H460
U-251 = tested on: U-251
RXF 393 = tested on: RXF 393
NCI-H522 = tested on: NCI-H522
NCI-H226 = tested on: NCI-H226

Measured: GI50

C(=N\OCc1ccccc1)/c1ncccc1C1OCCO1
inactive: M14 > 100 µM | SN12C > 100 µM | NCI-H23 > 100 µM | SF-539 > 100 µM | K562 > 100 µM | LOX IMVI > 100 µM | TK-10 > 100 µM | SNB-19 > 100 µM | Malme-3M > 100 µM | SK-MEL-2 > 100 µM | ACHN > 100 µM | UO-31 > 100 µM | NCI-H460 > 100 µM | U-251 > 100 µM | RXF 393 > 100 µM | NCI-H522 > 100 µM

OCC1OC(c2nc(C3=NCCCN3)cs2)C(O)C1O (stereo not given)
inactive: M14 > 100 µM | SN12C > 100 µM | NCI-H23 > 100 µM | SF-539 > 100 µM | K562 > 100 µM | LOX IMVI > 100 µM | NCI-H226 > 100 µM | TK-10 > 100 µM | SNB-19 > 100 µM | Malme-3M > 100 µM | SK-MEL-2 > 100 µM | ACHN > 100 µM | UO-31 > 100 µM | NCI-H460 > 100 µM | U-251 > 100 µM | NCI-H522 > 100 µM

CN(/N=C/c1cccc2cccnc12)c1ccc([N+](=O)[O-])cc1
inactive: M14 > 100 µM | SN12C > 100 µM | NCI-H23 > 100 µM | SF-539 7.69 µM | K562 > 100 µM | LOX IMVI > 100 µM | NCI-H226 > 100 µM | TK-10 91.2 µM | SNB-19 > 100 µM | Malme-3M > 100 µM | SK-MEL-2 > 100 µM | ACHN > 100 µM | NCI-H460 8.07 µM | RXF 393 > 100 µM

Cc1cccc2c1Oc1cc(Cl)ccc1C2NC(=O)CN(C)C (stereo not given)
inactive: M14 24 µM | SN12C 63.1 µM | NCI-H23 92 µM | SF-539 80.5 µM | K562 36 µM | LOX IMVI 42.6 µM | NCI-H226 99.8 µM | TK-10 > 100 µM | SNB-19 54 µM | ACHN 22.8 µM | UO-31 28.8 µM | NCI-H460 33.8 µM | RXF 393 26.5 µM

COc1ccc(NC(=O)C2C(=O)N(c3ccc(OC)cc3)C(=O)/C2=N\N)cc1 (stereo not given)
inactive: M14 > 100 µM | SN12C > 100 µM | NCI-H23 > 100 µM | SF-539 > 100 µM | K562 65 µM | TK-10 > 100 µM | SNB-19 94.8 µM | Malme-3M > 100 µM | SK-MEL-2 > 100 µM | ACHN > 100 µM | UO-31 > 100 µM | NCI-H460 > 100 µM | U-251 > 100 µM | RXF 393 > 100 µM | NCI-H522 > 100 µM

CC(C)CCC[C@@H](C)[C@H]1CC[C@H]2[C@@H]3CC=C4CC(OCCCCN(O)CCCSC5OC(CO)C(O)C(O)C5O)CC[C@]4(C)[C@H]3CC[C@]12C (stereo not given in full)
inactive: M14 25 µM | SN12C > 100 µM | NCI-H23 45.2 µM | SF-539 18.8 µM | K562 36.3 µM | LOX IMVI 21.8 µM | TK-10 > 100 µM | SNB-19 > 100 µM | SK-MEL-2 17.4 µM | ACHN > 100 µM | UO-31 > 100 µM | NCI-H460 39.9 µM | U-251 30.2 µM | RXF 393 79.3 µM | NCI-H522 23.1 µM

C/C=C(\C)c1cc(O)c(C)c2c1Oc1cc(O)c(Cl)c(C)c1C(=O)O2
inactive: M14 20.1 µM | SN12C 16.6 µM | NCI-H23 18.9 µM | SF-539 20 µM | LOX IMVI 17.6 µM | NCI-H226 18.5 µM | TK-10 16.2 µM | SNB-19 17.3 µM | SK-MEL-2 21.5 µM | ACHN 22.2 µM | UO-31 13.5 µM | NCI-H460 20 µM | U-251 23.4 µM | RXF 393 18.8 µM | NCI-H522 19.4 µM

O=c1oc2c3ccc4ccccc4c3n(CCN3CCCCC3)c2c2ccccc12
inactive: M14 20 µM | SN12C > 100 µM | NCI-H23 21.4 µM | SF-539 17.1 µM | K562 15.1 µM | LOX IMVI 31.1 µM | TK-10 37.2 µM | SNB-19 28.8 µM | Malme-3M 30.3 µM | SK-MEL-2 26.5 µM | ACHN 31.6 µM | UO-31 49.4 µM | NCI-H460 4.12 µM | U-251 17.7 µM | RXF 393 14.8 µM | NCI-H522 17.9 µM

Cl[Si]1(Cl)Oc2ccccc2O[Si](Cl)(Cl)Oc2ccccc2O1
inactive: M14 15.5 µM | SN12C 6.7 µM | NCI-H23 14.8 µM | SF-539 20.3 µM | K562 15.3 µM | LOX IMVI 9.14 µM | NCI-H226 38.5 µM | TK-10 46.1 µM | SNB-19 17.4 µM | Malme-3M 18.7 µM | SK-MEL-2 20.5 µM | ACHN 15.8 µM | NCI-H460 6.9 µM | U-251 28.1 µM | NCI-H522 1.53 µM

Cc1c(Cl)cccc1NC(=O)CC1C(=O)Nc2ccccc2S1(=O)=O (stereo not given)
inactive: M14 14.2 µM | SN12C 16.7 µM | NCI-H23 18.1 µM | SF-539 14.7 µM | K562 5.5 µM | LOX IMVI 14.6 µM | NCI-H226 16.9 µM | TK-10 25.8 µM | SNB-19 33 µM | Malme-3M 17.6 µM | SK-MEL-2 19.4 µM | ACHN 16.5 µM | UO-31 17.1 µM | NCI-H460 14.7 µM | U-251 13.1 µM | RXF 393 14.7 µM

CCOC(=O)C1(Br)C(c2ccccc2)NC(=O)NC1(C)Br (stereo not given)
inactive: M14 82.8 µM | SN12C 59.6 µM | NCI-H23 67.3 µM | K562 39.8 µM | LOX IMVI 38.3 µM | NCI-H226 > 100 µM | TK-10 > 100 µM | SNB-19 19 µM | Malme-3M > 100 µM | SK-MEL-2 > 100 µM | ACHN > 100 µM | UO-31 > 100 µM | NCI-H460 > 100 µM | U-251 16.4 µM | RXF 393 25.1 µM | NCI-H522 30.3 µM

CC(C)N(C(=O)C12C3C4C5(C#N)C3C1(C#N)C5C42C#N)C(C)C (stereo not given)
inactive: SN12C > 100 µM | NCI-H23 > 100 µM | SF-539 > 100 µM | K562 > 100 µM | LOX IMVI > 100 µM | NCI-H226 > 100 µM | TK-10 > 100 µM | SNB-19 > 100 µM | Malme-3M > 100 µM | SK-MEL-2 > 100 µM | ACHN > 100 µM | UO-31 > 100 µM | NCI-H460 > 100 µM | U-251 > 100 µM | NCI-H522 > 100 µM

C=C1CCCC2OC(OC)CCC12 (stereo not given)
inactive: M14 > 100 µM | SN12C > 100 µM | NCI-H23 > 100 µM | SF-539 > 100 µM | K562 > 100 µM | NCI-H226 > 100 µM | TK-10 > 100 µM | SNB-19 > 100 µM | Malme-3M > 100 µM | SK-MEL-2 > 100 µM | ACHN > 100 µM | UO-31 > 100 µM | NCI-H460 > 100 µM | U-251 > 100 µM | RXF 393 > 100 µM | NCI-H522 > 100 µM

CCN1CCC(O)(/C=C/c2ccc(Cl)cc2)C(C(=O)/C=C/c2ccc(Cl)cc2)C1 (stereo not given)
inactive: M14 34.6 µM | SN12C > 10 µM | NCI-H23 20.2 µM | K562 28.1 µM | LOX IMVI 16.2 µM | NCI-H226 20.8 µM | TK-10 31.1 µM | SNB-19 71.6 µM | Malme-3M > 100 µM | SK-MEL-2 69.3 µM | ACHN 33 µM | UO-31 31.3 µM | NCI-H460 28 µM | U-251 19 µM | NCI-H522 28.4 µM

CC1(C(=O)O)CCOc2ccccc21 (stereo not given)
inactive: M14 > 100 µM | SN12C > 100 µM | NCI-H23 > 100 µM | SF-539 > 100 µM | K562 > 100 µM | LOX IMVI > 100 µM | NCI-H226 > 100 µM | TK-10 > 100 µM | SNB-19 > 100 µM | Malme-3M > 100 µM | ACHN > 100 µM | UO-31 > 100 µM | NCI-H460 > 100 µM | RXF 393 > 100 µM

C=CCCC12CCCC(=O)C1Sc1ccc3ccccc3c12 (stereo not given)
inactive: M14 13.2 µM | SN12C 14.6 µM | NCI-H23 19.7 µM | SF-539 15.1 µM | K562 16.8 µM | LOX IMVI 13.6 µM | NCI-H226 14.1 µM | TK-10 20.9 µM | SNB-19 24.4 µM | Malme-3M 16.4 µM | SK-MEL-2 13.4 µM | ACHN 24.8 µM | UO-31 16.8 µM | U-251 16.6 µM | RXF 393 12.2 µM | NCI-H522 15 µM

CC1C(=O)N(C)C2(CO)C(=O)O[C@H](C)C12O (stereo not given in full)
inactive: M14 > 100 µM | NCI-H23 > 100 µM | SF-539 > 100 µM | K562 > 100 µM | TK-10 > 100 µM | SNB-19 > 100 µM | Malme-3M > 100 µM | SK-MEL-2 > 100 µM | UO-31 > 100 µM | U-251 > 100 µM | RXF 393 > 100 µM

C=CCC1[C@@H](C(C)(C)C(C(C)=O)C(=O)C(=O)OC)OC(C(C)(C)C)N1C(=O)OC (stereo not given in full)
inactive: M14 > 100 µM | SN12C > 100 µM | NCI-H23 > 100 µM | SF-539 > 100 µM | K562 40.6 µM | NCI-H226 52.6 µM | TK-10 > 100 µM | SNB-19 > 100 µM | Malme-3M > 100 µM | SK-MEL-2 > 100 µM | ACHN > 100 µM | UO-31 > 100 µM | NCI-H460 > 100 µM | U-251 > 100 µM | RXF 393 > 100 µM | NCI-H522 > 100 µM
